Results from patent US20210214399A1, “PH LOW INSERTION PEPTIDE AND COMPOSITION THEREOF” (priority 2017, published 2021).

What was measured:
[1] = background art, pHLIP derivatives produced by sequence adjustment; cited from earlier work
[2] = tested on: Human colorectal cancer cell line SW480; details: for insertion into the surface of the cell (fluorescence on cell membrane): acid solution environment, PBS pH 6.3, alexa647 marked peptide; for insertion into the surface of the cell (fluorescence on cell membrane) / membrane insertion ability: 37° C. 1 hour; for membrane insertion ability: neutral solution environment, PBS pH 7.4, alexa647 marked peptide
Protocol: (1) The SW480 cells in logarithmic phase were collected, the culture solution was discarded, and the cells were washed twice with saline. […] The cells were transferred to a 10 ml test tube to centrifuge at 1000 rpm for 5 min, the supernatant was removed, and 1 ml of RPMI 1640 medium containing 10% fetal bovine serum was added to resuspend and mix the cells. After 10 μl of the cell suspension was added to a cell counting plate and counted, a certain amount of the cell suspension was added into the laser confocal cell culture dish, which was then adjusted to a cell system of 5* 10^5, 1 ml with complete medium, and put into a cell incubator and incubated overnight.
(2) The culture solution was prepared using 1 mol/L hydrochloric acid and a PBS buffer at pH 7.4. Hydrochloric acid was added dropwise to the PBS buffer, and finally the pH value of the buffer was titrated to 6.3.
(3) When the SW480 cells adhered after being cultured overnight, the supernatant of the medium was removed, and the cells were washed twice with a PBS buffer at pH 7.4.
(4) The PBS buffer in the cell culture dish was removed, 1 ml of the previously prepared mixed culture buffers of PBS at pH 6.3 and 7.4 and peptides were added to the two dishes, respectively, and 1 ml of the PBS medium at pH 7.4 without peptides was added to another control dish, and all of them were put in a 37° C. cell incubator to incubate for 1 hour.
(5) After incubation, the supernatant of the peptide-containing PBS culture solution was removed, and the peptide-containing PBS culture solution was washed three times with peptide-free PBS buffers with different pH values in each group, and then added with a PBS buffer at pH 7.4.
(6) The prepared cell culture dishes were placed under the laser confocal microscope (647 mm excitation wavelength) to observe the fluorescence expression on the surface of the cell membrane.

[3] = tested on: Mouse colon cancer cells CT26 tumors; details: for fluorescent marking of tumor tissues by 72 hours: 72 hours after intravenous injection; for marking of tumors (in vivo imaging): CT26 subcutaneous tumors, alexa647 marked peptide intravenously, imaging at 24, 48, 72 hours
Protocol: Mouse colon cancer cells CT26 were subcutaneously inoculated into Balb/c mice, and when the tumors grew to about 1 cm, saline (N.S.), alexa647 marked p-var7, alexa647 marked var7 were intravenously injected respectively with a dosage of 60 μM/100 pL N. S., in vivo imaging (excitation with Cy5.5 wavelength) was performed at 24, 48, 72 hours with supine position photography. The mice were sacrificed for tumor imaging.

4T1 cells tumors = details: fusion peptide 1 mg/kg intravenous every other day combined with CD20 monoclonal antibody GA101 30 mg/kg intraperitoneal twice a week; 4T1 tumors, Balb/c mice
Protocol: 4T1 cells were inoculated into mouse breasts, 2×10^6 cells/mouse, 50 μl volume.
(§1) When the tumor grows to 50mm^3, treatment was started.
(§2) The tumor volume and mouse body weight were measured every 3 days.
When the tumor volume in the control group reached 1000 mm^3, the administration was terminated.
When the tumor grows to 50mm^3, treatment was started. There are four groups: CD20-var3/GA101 group (10), GA101 group (5), CD20-var3 group (5), PBS group (10).
Administration method: CD20-var3, 1 mg/kg, intravenous injection, every other day; GA101, 30 mg/kg, intraperitoneal injection, twice a week. The tumor volume and mouse body weight were measured every 3 days.
as §1, §2

A549 tumors = details: Herceptin 10 mg/kg intraperitoneal combined with Her2 D4-pHLIP 40 μM/100 μl intravenous, nude mice
Protocol: A549 was inoculated into nude mice, when the tumor diameter grew to 1 cm, the tumor was aseptically peeled off, shredded, homogenized, and sieved to make a single cell suspension which was cultured and amplified in 1640 complete medium. The cells were injected into the subcutaneous abdomen of the nude mice with 1×10^6 cells/body, when the tumor diameter grew to 0.5 to 1 cm, the oversized and undersized tumors were removed, and mice with substantially the same tumor size were grouped. There were 4 groups: injection group of the Her2 D4-pHLIP alone, 10; injection group of the Her2 D4-pHLIP combined with the herceptin, 10; injection group of the Her2 D4-pHLIP combined with the IgG1, 10; injection group of normal saline N. S, 10. The tumor size was measured every 3 days.
Administration method: Her2 D4-pHLIP administration: each was injected intravenously with 40 μM/100 μl every time, starting from the day after the grouping was completed, once a day, and once every 2 days; antibody administration: Intraperitoneal injection, the dose was 10 mg/kg, the injection frequency was the same as the Her2 D4-pHLIP, and the injection time was 6 to 12 hours after the administration of the Her2 D4-pHLIP until the end.

ACDDQNPWRAYLDLLFPTDTLLLDLLW (listed as Homo sapiens) [var3]
tumor targeting [1]: improve its tumor targeting

ACEEQNPGGGSACEEQNPWARYLEWLFPTETLLLEL [p-var7]
insertion into the surface of the cell (fluorescence on cell membrane) [2]: could effectively insert into the surface of human colon cancer cell SW480 | membrane insertion ability [2]: lost | selectivity in the acidic microenvironment ([2]; p-var7 compared with var7, pH 6.3 vs 7.4): more selective in the acidic microenvironment of tumor tissues | fluorescent marking of tumor tissues by 72 hours ([3]; CT26 tumors, Balb/c mice): still showed strong fluorescent marking | marking of tumors (in vivo imaging) ([3]; Balb/c mice): could mark tumors | marking ability, compared ([3]; p-var7 compared with var7, CT26 tumors, Balb/c mice): stronger marking ability | accumulation of fluorescence in the tumor sites, persistence ([3]; previous experiment results of in vivo imaging, same dose 40 μM/100 μl intravenously): basically degraded by the third day

ACEEQNPWARYLEWLFPTETLLLEL [var7, reference compound]
insertion into the surface of the cell (fluorescence on cell membrane) [2]: could effectively insert into the surface of human colon cancer cell SW480 | membrane insertion ability [2]: retained the ability | tumor targeting [1]: maintaining good targeting | fluorescence intensity as time went by ([3]; 24 to 72 hours, var7 compared with p-var7, CT26 tumors, Balb/c mice): decayed more significantly | fluorescent marking of tumor tissues by 72 hours ([3]; CT26 tumors, Balb/c mice): only a few markers were visible in the tumor tissues | marking of tumors (in vivo imaging) ([3]; Balb/c mice): could mark tumors

NIYNCEPANP SEKN SP S TQYC Y SIQ GGG SA S EEQNPWARYLEWLFP TETLLLEL [CD20-var7]
tumor cell growth (4T1 cells tumors): can significantly inhibit tumor cells growth

NIYNCEPANP SEKN SP S TQYCYSIQGGGSACDDQNPWRAYLDLLFPTDTLLLD LLW [CD20-var3]
tumor cell growth (4T1 cells tumors): can significantly inhibit tumor cell growth

NIYNCEPANP SEKN SP S TQYCYSIQGGGSACEQNPIYWARYADWLF TTPLLLL DLALLVDADEG [CD20-WT]
tumor cell growth (4T1 cells tumors): can significantly inhibit tumor cell growth

trastuzumab [Herceptin]
tumor growth (A549 tumors): significantly inhibited tumor growth
